Results as given in patent US20190358974A1, “COMPOSITIONS AND PARTICLES CONTAINING CELLULOSIC FIBERS AND STABILIZED- AND/OR ACTIVATED- UREASE INHIBITORS, AS WELL AS METHODS OF MAKING AND USING THE SAME” (INTERNATIONAL PAPER COMPANY, priority 2016, published 2019).

Tests used:
[1] = system: Proteus mirabilis ATCC #7002; test: Bacterial ammonia test: NH3 in headspace over fluff/SAP pad inoculated with bacteria in synthetic urine; format: cell-based; settings: 400 ppm PPDA inside cellulosic pulp, stored dry at ambient conditions, 20 weeks
Source text: Test Pad Sample Preparation • 1. Place a non-woven carrier on the 50 mm diameter SCAN pad former screen, attach tube, tare, and place on SCAN test piece former. • 2. Weigh out 0.60 gm fiberized pulp. Fibers should be “fluffy”, well dispersed, and spread evenly in the weighing pan. • 3. Sprinkle 0.40 gm SAP evenly over the fiber. • 4. Start the vacuum and feed the SAP/fiber into the forming cone through the feed tube, ensuring that both materials are simultaneously introduced. • 5. Remove the pad assembly from the former and weigh. Lightly compress the pad and remove the tube. • 6. Lift the non-woven carrier with the pad off of the screen. • 7. Press to ˜3 mm • 8. Seal pad wrapped in non-woven in a plastic ziplok bag until testing.
This is the Test Inoculum Solution.
At the end of the designated exposure period, the ammonia in the headspace of the sealed jar is measured using the Drager system. The sampling end of the Drager tube is fitted with a needle which is inserted through the septum. A vent needle is inserted to allow withdrawal of the gaseous sample. The opposite end of the measuring tube is attached to the Drager pump. Ammonia is withdrawn according to the manufacturer specifications for the tube and the measurement recorded.
The PPDA treated pulp was then shredded by a lab hammermill to convert into fluff fibers. […]

[2] = cited from earlier work
[3] = Aging/degradation of PPDA on dry pulp, PPDA remaining tested by HPLC; format: physicochemical; settings: 400 ppm PPDA on pulp stored on shelf as dry pulp, ambient conditions
Procedure: Bleached softwood pulp sheets were treated (sprayed) respectively with: 1) 400 ppm PPDA on pulp from water solution; 2) 400 ppm PPDA on pulp from PEG-200 solution; 3) 400 ppm PPDA on pulp from solution of 90% PEG-200 and 10% Talc powder. All the samples were dried on a dryer can at 195 F. They were then stored under room temperature (23 C) and 50% humidity chamber. The PPDA content remaining in the dry pulp samples was tested by HPLC.
They were then put into a controlled chamber with temperature of 55 C and 50% relative humidity. The PPDA content remaining in the dry pulp samples was tested by HPLC.
Accelerated aging study was done at 35 C and 50% RH with individual sheets thoroughly exposed to the environment. The control PPDA doses were 400 ppm and 1000 ppm based on the weight of the sheet, applied with water solution and dried. And the stabilized PPDA doses were also at 400 ppm and 1000 ppm on sheet, applied with 2% PPDA solution in PEG-200. The results are shown in the table below, and plotted in FIG. 4.
Aging test was also conducted on-shelf in the bag at room conditions. The result was shown in Table 12, and plotted in FIG. 5 in log scale.

NP(N)(=O)Oc1ccccc1 [PPDA, phenylphosphorodiamidate]
effectiveness against ammonia generation [1]: lost all its effectiveness against ammonia generation | stability of dry PPDA ([2]; dry): stable | stability in water ([2]; in water): not stable | stability inside cellulosic pulp [3]: not stable
